Experimental data taken from US9255090B2, “Heterocyclyl derivatives and their use as prostaglandin D2 receptor modulators” (Actelion Pharmaceuticals Ltd., priority 2012, dated 2016).

Target: hCRTH2 receptor (Homo sapiens (Human), UniProt Q9Y5Y4)
Assay: hCRTH2 receptor membranes radioligand (3H-PGD2) displacement assay
Type: binding
Settings: 3H-PGD2 radioligand displacement, HEK293-hCRTH2 membranes
Procedure, shortened: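 HEK293-hCRTH2 membranes, 20 μg/well; 3H-PGD2 added at 2.5 nM; binding buffer 50 mM Tris, 10 mM MnCl2, 1 mM EDTA, pH 7.0; 90 min RT; GF/C filtration, scintillation count. Nonspecific binding: PGD2 at […].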

Sequence of hCRTH2 receptor (Q9Y5Y4 whole entry): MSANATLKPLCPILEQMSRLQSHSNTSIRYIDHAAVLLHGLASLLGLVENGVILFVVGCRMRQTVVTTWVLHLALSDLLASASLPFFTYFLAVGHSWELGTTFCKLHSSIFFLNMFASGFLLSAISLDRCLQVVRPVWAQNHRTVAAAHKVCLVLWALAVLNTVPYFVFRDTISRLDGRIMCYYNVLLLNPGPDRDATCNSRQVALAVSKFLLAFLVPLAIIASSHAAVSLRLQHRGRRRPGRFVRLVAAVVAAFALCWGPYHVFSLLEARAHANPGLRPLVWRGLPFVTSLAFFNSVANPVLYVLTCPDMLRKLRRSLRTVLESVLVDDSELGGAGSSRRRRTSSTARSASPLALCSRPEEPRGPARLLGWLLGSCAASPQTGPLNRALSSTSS

SMILES | IC50
CC(C)Oc1cc(CC(=O)O)ccc1-c1ccc(F)c2c1CN(C(=O)[C@@H]1C[C@H]1c1ccccc1)CC2 [Example 357, {4-[5-Fluoro-2-((1R,2R)-2-phenyl-cyclopropanecarbonyl)-1,2,3,4-tetrahydro-isoquinolin-8-yl]-3-isopropoxy-phenyl}-acetic acid] | 1.6 nM
CCOc1ccc(CC(=O)O)cc1-c1ccc(F)c2c1CN(C(=O)O[C@H](C)c1ccccc1)CC2 [Example 364, 8-(5-Carboxymethyl-2-ethoxy-phenyl)-5-fluoro-3,4-dihydro-1H-isoquinoline-2-carboxylic acid (R)-1-phenyl-ethyl ester] | 6 nM
CCOc1ccc(CC(=O)O)cc1-c1ccc(F)c2c1CN(C(=O)OCc1ccnn1C)CC2 [Example 367, 8-(5-Carboxymethyl-2-ethoxy-phenyl)-5-fluoro-3,4-dihydro-1H-isoquinoline-2-carboxylic acid 2-methyl-2H-pyrazol-3-ylmethyl ester] | 8.8 nM
CCOc1ccc(CC(=O)O)cc1-c1ccc(F)c2c1CN(C(=O)OCC=C(C)C)CC2 [Example 375, 8-(5-Carboxymethyl-2-ethoxy-phenyl)-5-fluoro-3,4-dihydro-1H-isoquinoline-2-carboxylic acid 3-methyl-but-2-enyl ester] | 8.7 nM
CCOc1ccc(CC(=O)O)cc1-c1ccc(F)c2c1CN(C(=O)OCCOC)CC2 [Example 378, 8-(5-Carboxymethyl-2-ethoxy-phenyl)-5-fluoro-3,4-dihydro-1H-isoquinoline-2-carboxylic acid 2-methoxy-ethyl ester] | 5.9 nM
C=C(C)CCOC(=O)N1CCc2c(F)ccc(-c3cc(CC(=O)O)ccc3OCC)c2C1 [Example 379, 8-(5-Carboxymethyl-2-ethoxy-phenyl)-5-fluoro-3,4-dihydro-1H-isoquinoline-2-carboxylic acid 3-methyl-but-3-enyl ester] | 2.5 nM
C#CCCOC(=O)N1CCc2c(F)ccc(-c3cc(CC(=O)O)ccc3OCC)c2C1 [Example 381, 8-(5-Carboxymethyl-2-ethoxy-phenyl)-5-fluoro-3,4-dihydro-1H-isoquinoline-2-carboxylic acid but-3-ynyl ester] | 28.8 nM
CCOc1ccc(CC(=O)O)cc1-c1ccc(F)c2c1CN(C(=O)OCCC(C)(C)O)CC2 [Example 382, 8-(5-Carboxymethyl-2-ethoxy-phenyl)-5-fluoro-3,4-dihydro-1H-isoquinoline-2-carboxylic acid 3-hydroxy-3-methyl-butyl ester] | 14 nM
CCOc1ccc(CC(=O)O)cc1-c1ccc(F)c2c1CN(C(=O)OCCC(C)(C)OC)CC2 [Example 383, 8-(5-Carboxymethyl-2-ethoxy-phenyl)-5-fluoro-3,4-dihydro-1H-isoquinoline-2-carboxylic acid 3-methoxy-3-methyl-butyl ester] | 19 nM
CCOc1cc(CC(=O)O)ccc1-c1ccc(F)c2c1CN(C(=O)O[C@H](C)c1ccccc1)CC2 [Example 385, 8-(4-Carboxymethyl-2-ethoxy-phenyl)-5-fluoro-3,4-dihydro-1H-isoquinoline-2-carboxylic acid (R)-1-phenyl-ethyl ester] | 35.8 nM
CCOc1cc(CC(=O)O)ccc1-c1ccc(F)c2c1CN(C(=O)OCc1cnccn1)CC2 [Example 386, 8-(4-Carboxymethyl-2-ethoxy-phenyl)-5-fluoro-3,4-dihydro-1H-isoquinoline-2-carboxylic acid pyrazin-2-ylmethyl ester] | 3.4 nM
CCOc1cc(CC(=O)O)ccc1-c1ccc(F)c2c1CN(C(=O)OCc1ncc(C)cc1F)CC2 [Example 387, 8-(4-Carboxymethyl-2-ethoxy-phenyl)-5-fluoro-3,4-dihydro-1H-isoquinoline-2-carboxylic acid 3-fluoro-5-methyl-pyridin-2-ylmethyl ester] | 8 nM
CCOc1cc(CC(=O)O)ccc1-c1ccc(F)c2c1CN(C(=O)OCc1ccnn1C)CC2 [Example 388, 8-(4-Carboxymethyl-2-ethoxy-phenyl)-5-fluoro-3,4-dihydro-1H-isoquinoline-2-carboxylic acid 2-methyl-2H-pyrazol-3-ylmethyl ester] | 3.8 nM

Other lines, results leading:

IC50 | SMILES
0.8 nM | CCOc1cc(CC(=O)O)ccc1-c1ccc(F)c2c1CN(C(=O)OCc1cccc(C)n1)CC2 [Example 390, 8-(4-Carboxymethyl-2-ethoxy-phenyl)-5-fluoro-3,4-dihydro-1H-isoquinoline-2-carboxylic acid 6-methyl-pyridin-2-ylmethyl ester]
1.6 nM | CCOc1cc(CC(=O)O)ccc1-c1ccc(F)c2c1CN(C(=O)OCC1CC1)CC2 [Example 391, 8-(4-Carboxymethyl-2-ethoxy-phenyl)-5-fluoro-3,4-dihydro-1H-isoquinoline-2-carboxylic acid cyclopropylmethyl ester]
5.9 nM | CCOc1cc(CC(=O)O)ccc1-c1ccc(F)c2c1CN(C(=O)OCC1CCCC1)CC2 [Example 392, 8-(4-Carboxymethyl-2-ethoxy-phenyl)-5-fluoro-3,4-dihydro-1H-isoquinoline-2-carboxylic acid cyclopentylmethyl ester]
49.4 nM | CCOc1cc(CC(=O)O)ccc1-c1ccc(F)c2c1CN(C(=O)OCCC(C)C)CC2 [Example 393, 8-(4-Carboxymethyl-2-ethoxy-phenyl)-5-fluoro-3,4-dihydro-1H-isoquinoline-2-carboxylic acid 3-methyl-butyl ester]
3.7 nM | CCOc1cc(CC(=O)O)ccc1-c1ccc(F)c2c1CN(C(=O)OCc1ccccn1)CC2 [Example 395, 8-(4-Carboxymethyl-2-ethoxy-phenyl)-5-fluoro-3,4-dihydro-1H-isoquinoline-2-carboxylic acid pyridin-2-ylmethyl ester]
575 nM | O=C(O)Cc1ccc(Cl)cc1-c1ccc(F)c2c1CN(C(=O)OCc1ccccc1)CC2 [Example 416, 8-(2-Carboxymethyl-5-chloro-phenyl)-5-fluoro-3,4-dihydro-1H-isoquinoline-2-carboxylic acid benzyl ester]
23.5 nM | COc1cccc(OCC(=O)O)c1-c1ccc(F)c2c1CN(C(=O)OCc1ccccc1)CC2 [Example 417, 8-(2-Carboxymethoxy-6-methoxy-phenyl)-5-fluoro-3,4-dihydro-1H-isoquinoline-2-carboxylic acid benzyl ester]
352 nM | COc1cccc(CC(=O)O)c1-c1ccc(F)c2c1CN(C(=O)OCc1ccccc1)CC2 [Example 418, 8-(2-Carboxymethyl-6-methoxy-phenyl)-5-fluoro-3,4-dihydro-1H-isoquinoline-2-carboxylic acid benzyl ester]
180 nM | COc1c(CC(=O)O)cccc1-c1ccc(F)c2c1CN(C(=O)OCc1ccccc1)CC2 [Example 423, 8-(3-Carboxymethyl-2-methoxy-phenyl)-5-fluoro-3,4-dihydro-1H-isoquinoline-2-carboxylic acid benzyl ester]
444 nM | COc1cc(OCC(=O)O)ccc1-c1ccc(F)c2c1CN(C(=O)OCc1ccccc1)CC2 [Example 424, 8-(4-Carboxymethoxy-2-methoxy-phenyl)-5-fluoro-3,4-dihydro-1H-isoquinoline-2-carboxylic acid benzyl ester]
1.9 nM | O=C(O)Cc1ccc(OCC(F)(F)F)c(-c2ccc(F)c3c2CN(C(=O)[C@@H]2C[C@H]2c2ccccc2)CC3)c1 [Example 426, [3-[5-Fluoro-2-((1R,2R)-2-phenyl-cyclopropanecarbonyl)-1,2,3,4-tetrahydro-isoquinolin-8-yl]-4-(2,2,2-trifluoro-ethoxy)-phenyl]-acetic acid]
